Experimental data taken from ChEMBL document CHEMBL1134061, “Synthesis and biological evaluations of condensed pyridine and condensed pyrimidine-based HMG-CoA reductase inhibitors” (Bioorg Med Chem Lett, 2001).

Tests used:
[1] = biological target: T1, 3-hydroxy-3-methylglutaryl-coenzyme A reductase (Rattus norvegicus) (UniProt P51639); assay: In vivo hepatic cholesterol synthesis inhibitory activity in male Sprague-Dawley rat after oral administration at a concentration of 2.0 mg/kg; assay type: functional, organism-based; design: dose 2 mg/kg
T1 sequence (whole entry): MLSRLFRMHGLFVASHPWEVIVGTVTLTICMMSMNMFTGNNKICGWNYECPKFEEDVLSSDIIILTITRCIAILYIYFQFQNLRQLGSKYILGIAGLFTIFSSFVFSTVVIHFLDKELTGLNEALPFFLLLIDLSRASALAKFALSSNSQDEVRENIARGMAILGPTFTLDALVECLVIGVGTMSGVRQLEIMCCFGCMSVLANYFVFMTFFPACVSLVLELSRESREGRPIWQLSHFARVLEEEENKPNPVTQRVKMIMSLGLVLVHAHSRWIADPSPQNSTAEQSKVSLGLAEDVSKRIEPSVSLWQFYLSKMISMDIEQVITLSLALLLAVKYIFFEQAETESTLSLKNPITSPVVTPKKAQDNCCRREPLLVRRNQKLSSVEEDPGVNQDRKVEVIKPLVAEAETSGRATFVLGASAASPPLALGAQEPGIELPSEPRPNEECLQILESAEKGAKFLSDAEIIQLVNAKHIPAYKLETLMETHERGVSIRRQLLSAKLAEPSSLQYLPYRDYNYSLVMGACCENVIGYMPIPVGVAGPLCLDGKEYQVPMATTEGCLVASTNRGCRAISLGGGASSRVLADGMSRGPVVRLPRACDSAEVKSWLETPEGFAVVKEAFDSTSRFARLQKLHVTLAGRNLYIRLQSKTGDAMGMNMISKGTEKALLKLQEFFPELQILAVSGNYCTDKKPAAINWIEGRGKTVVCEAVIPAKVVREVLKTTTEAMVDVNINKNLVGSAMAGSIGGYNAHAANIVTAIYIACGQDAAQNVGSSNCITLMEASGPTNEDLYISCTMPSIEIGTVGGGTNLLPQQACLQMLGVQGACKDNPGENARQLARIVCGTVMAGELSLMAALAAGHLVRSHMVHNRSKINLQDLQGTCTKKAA

[2] = biological target: T2, 3-hydroxy-3-methylglutaryl-coenzyme A reductase (Rattus norvegicus, UniProt P51639); assay: In vitro HMG-CoA reductase inhibitory activity to inhibit sterol synthesis in cell free system in rat
T2 sequence (P51639 whole entry): T1 sequence (whole entry)

[3] = biological target: T1, 3-hydroxy-3-methylglutaryl-coenzyme A reductase (Rattus norvegicus); assay: In vivo hepatic cholesterol synthesis inhibitory activity in male Sprague-Dawley rat after oral administration at a concentration of 0.2 mg/kg; assay type: functional, organism-based; design: dose 0.2 mg/kg
[4] = biological target: T1, 3-hydroxy-3-methylglutaryl-coenzyme A reductase (Rattus norvegicus); assay: In vitro rat HMG-CoA reductase inhibitory activity required to inhibit sterol synthesis in cell free system with pravastatin as reference compound
[5] = biological target: T3, 3-hydroxy-3-methylglutaryl-coenzyme A reductase (Homo sapiens) (UniProt P04035); assay: In vitro HMG-CoA reductase inhibitory activity required to inhibit cellular steroidgenesis in Hep G2 cells (human hepatoma cell line) with pravastatin as reference compound; assay type: cell-based; conditions: HepG2
T3 sequence (whole entry): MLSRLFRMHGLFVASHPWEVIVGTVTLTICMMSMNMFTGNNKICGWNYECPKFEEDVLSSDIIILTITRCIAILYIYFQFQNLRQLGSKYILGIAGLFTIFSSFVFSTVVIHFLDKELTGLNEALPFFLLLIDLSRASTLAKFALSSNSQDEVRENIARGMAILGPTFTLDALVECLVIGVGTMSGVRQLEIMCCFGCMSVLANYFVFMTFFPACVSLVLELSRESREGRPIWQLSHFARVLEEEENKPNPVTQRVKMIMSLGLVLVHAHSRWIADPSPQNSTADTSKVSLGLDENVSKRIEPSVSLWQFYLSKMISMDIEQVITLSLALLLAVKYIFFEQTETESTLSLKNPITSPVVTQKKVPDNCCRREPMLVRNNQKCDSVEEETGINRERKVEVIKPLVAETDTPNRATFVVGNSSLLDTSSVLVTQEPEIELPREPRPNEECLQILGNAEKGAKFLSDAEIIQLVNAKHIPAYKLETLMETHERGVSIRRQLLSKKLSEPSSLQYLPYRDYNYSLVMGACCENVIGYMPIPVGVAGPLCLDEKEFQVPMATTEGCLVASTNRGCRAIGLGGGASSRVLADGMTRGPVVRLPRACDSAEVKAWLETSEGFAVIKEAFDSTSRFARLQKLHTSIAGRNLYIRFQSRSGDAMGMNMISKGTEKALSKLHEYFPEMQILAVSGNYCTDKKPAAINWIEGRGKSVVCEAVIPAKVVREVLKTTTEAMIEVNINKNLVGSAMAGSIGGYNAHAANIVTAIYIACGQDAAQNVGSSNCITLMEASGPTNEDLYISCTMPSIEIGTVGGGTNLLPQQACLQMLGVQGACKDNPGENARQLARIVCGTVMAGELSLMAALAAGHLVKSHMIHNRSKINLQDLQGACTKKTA

| SMILES | inhibition [1] | IC50 [2] | inhibition [3] | Relative potency [4] | Relative potency [5] |
| --- | --- | --- | --- | --- | --- |
| CC[C@H](C)C(=O)O[C@H]1C[C@H](O)C=C2C=C[C@H](C)[C@H](CC[C@@H](O)C[C@@H](O)CC(=O)O)[C@H]21 [PRAVASTATIN SODIUM] | 27.8% | 4.2 nM | 35.4% |  |  |
| Cc1nn(C(C)(C)C)c2nc(C(C)C)c(/C=C/[C@@H](O)C[C@@H](O)CC(=O)O)c(-c3ccc(F)cc3)c12 | 86% |  | 51.8% | 100 | 31 |
| O=C(O)C[C@H](O)C[C@H](O)/C=C/c1c(C2CC2)nc2sccc2c1-c1ccc(F)cc1 | 70.6% |  | 38.1% | 229 | 60 |
